Like-named read-outs stand apart in the source and are kept apart here.
Biological target: T1, Androgen Receptor (Homo sapiens, UniProt P10275)
T1 construct: endogenous in cells; host or cells: VCaP cells
T1 sequence (P10275 1-920): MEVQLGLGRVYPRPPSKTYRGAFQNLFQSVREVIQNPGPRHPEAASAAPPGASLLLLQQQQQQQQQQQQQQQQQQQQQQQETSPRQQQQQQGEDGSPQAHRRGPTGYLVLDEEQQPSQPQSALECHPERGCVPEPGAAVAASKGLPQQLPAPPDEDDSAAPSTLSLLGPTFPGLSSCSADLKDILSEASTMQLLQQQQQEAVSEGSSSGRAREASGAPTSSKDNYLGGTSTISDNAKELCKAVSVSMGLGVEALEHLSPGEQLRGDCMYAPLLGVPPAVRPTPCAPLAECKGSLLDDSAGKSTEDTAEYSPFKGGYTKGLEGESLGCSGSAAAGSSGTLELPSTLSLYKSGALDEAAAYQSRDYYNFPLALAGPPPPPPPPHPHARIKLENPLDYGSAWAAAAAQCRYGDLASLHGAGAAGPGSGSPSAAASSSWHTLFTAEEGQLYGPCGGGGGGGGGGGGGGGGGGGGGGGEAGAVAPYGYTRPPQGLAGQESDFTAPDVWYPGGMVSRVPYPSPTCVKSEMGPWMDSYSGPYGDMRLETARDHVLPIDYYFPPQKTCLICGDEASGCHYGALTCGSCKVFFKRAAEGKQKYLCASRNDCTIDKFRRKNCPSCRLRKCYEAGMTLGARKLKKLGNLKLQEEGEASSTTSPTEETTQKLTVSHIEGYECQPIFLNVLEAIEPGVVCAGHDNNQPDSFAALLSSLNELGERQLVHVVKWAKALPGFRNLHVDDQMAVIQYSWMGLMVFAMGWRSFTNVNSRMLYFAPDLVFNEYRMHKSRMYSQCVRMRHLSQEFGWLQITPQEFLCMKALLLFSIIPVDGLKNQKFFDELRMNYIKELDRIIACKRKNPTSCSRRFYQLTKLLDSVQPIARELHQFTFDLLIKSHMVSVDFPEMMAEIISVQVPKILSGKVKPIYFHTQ
Assay: Androgen Receptor ELISA assay (PathScan AR ELISA) in VCaP cells: AR degradation, Dmax and DC50
Assay type: cell-based
How it was run: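 After 24 h exposure of VCaP cells (charcoal-stripped serum, 0.1 nM R1881 agonist, 0.1% DMSO) to seven half-log compound concentrations, residual AR in lysates was measured by PathScan ELISA (TMB absorbance, 450 nm). Cells were plated at 30,000/well and grown at least 3 days beforehand.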

[1] = VCaP cells; Table 36; read-out: VCaP DC50
[2] = VCaP, VCaP cells; Table 36; read-out: VCaP Dmax (%)
[3] = read-out: VCaP DC50; VCaP cells; Table 36

Q: Cc1ncsc1-c1ccc(CNC(=O)[C@@H]2C[C@@H](O)CN2C(=O)[C@H](C(C)C)N2Cc3ccccc3C2=O)c(N2CCN(CCCc3ccc(C(=O)N[C@H]4C(C)(C)[C@H](Oc5ccc(C#N)c(Cl)c5)C4(C)C)cc3)CC2)c1 [Example 752, (2S,4R)-N-(2-(4-(3-(4-(((1r,3r)-3-(3-chloro-4-cyanophenoxy)-2,2,4,4-tetramethylcyclobutyl)carbamoyl)phenyl)propyl)piperazin-1-yl)-4-(4-methylthiazol-5-yl)benzyl)-4-hydroxy-1-((S)-3-methyl-2-(1-oxoisoindolin-2-yl)butanoyl)pyrrolidine-2-carboxamide] was tested. Which DC50 [1] did it give?
A: < 0.05 µM

Q: What about the Dmax [2] of the same molecule?
A: 51 to 70%

Q: How did the DC50 [1] turn out when Cc1ncsc1-c1ccc([C@H](C)NC(=O)[C@@H]2C[C@@H](O)CN2C(=O)[C@@H](NC(=O)COCCN2CCN(c3ccc(C(=O)N[C@H]4C(C)(C)[C@H](Oc5ccc(C#N)c(C(F)(F)F)c5)C4(C)C)cn3)CC2)C(C)(C)C)cc1 [Example 855, N-((1r,3r)-3-(4-cyano-3-(trifluoromethyl)phenoxyl)-2,2,4,4-tetramethylcyclobutyl)-6-(4-(2-(2-(((S)-1-((2S, 4R)-4-hyrdoxy-2-(((S)-1-(4-(4-methylthiazol-5-yl)phenyl)ethyl)carbamoyl)pyrrolidin-1-yl)-3,3-dimethyl-1-oxobutan-2-yl)amino)-2-oxoethoxy)ethyl)piperazin-1-yl) nicotinamide] was run?
A: < 0.05 µM

Q: What about the Dmax [2] of the same molecule?
A: > 71%

Q: Which DC50 [1] does the source give for Cc1ncsc1-c1ccc([C@H](C)NC(=O)[C@@H]2C[C@@H](O)CN2C(=O)[C@@H](NC(=O)CN2CC(N3CCN(c4ccc(C(=O)N[C@H]5C(C)(C)[C@H](Oc6ccc(C#N)c(Cl)c6)C5(C)C)cn4)CC3)C2)C(C)(C)C)cc1 [Example 794, N-((1r,3r)-3-(3-chloro-4-cyanophenoxy)-2,2,4,4-tetramethylcyclobutyl)-6-(4-(1-(2-(((S)-1-((2S,4R)-4-hydroxy-2-(((S)-1-(4-(4-methylthiazol-5-yl)phenyl)ethyl)carbamoyl)pyrrolidin-1-yl)-3,3-dimethyl-1-oxobutan-2-yl)amino)-2-oxoethyl)azetidin-3-yl)piperazin-1-yl)nicotinamide] here?
A: < 0.05 µM

Q: What about the Dmax [2] of the same molecule?
A: 51 to 70%

Q: Which results are given for Cc1ncsc1-c1ccc(C(CO)NC(=O)[C@@H]2C[C@@H](O)CN2C(=O)[C@@H](NC(=O)CCC(F)(F)CN2CCN(c3ccc(C(=O)N[C@H]4C(C)(C)[C@H](Oc5ccc(C#N)c(Cl)c5)C4(C)C)cn3)CC2)C(C)(C)C)cc1 (stereo partly drawn) [Example 800, N-((1r,3r)-3-(3-chloro-4-cyanophenoxy)-2,2,4,4-tetramethylcyclobutyl)-6-(4-(2,2-difluoro-5-(((S)-1-((2S,4R)-4-hydroxy-2-(((R)-2-hydroxy-1-(4-(4-methylthiazol-5-yl)phenyl)ethyl)carbamoyl)pyrrolidin-1-yl)-3,3-dimethyl-1-oxobutan-2-yl)amino)-5-oxopentyl)piperazin-1-yl)nicotinamide]?
A: DC50 [1]: < 0.05 µM; Dmax [2]: > 71%

Q: For Cc1ncsc1-c1ccc([C@H](C)NC(=O)[C@@H]2C[C@@H](O)CN2C(=O)[C@@H](NC(=O)CCCN(C)[C@H](C(=O)N[C@H](C(=O)N(C)CCOc2ccc(N3C(=S)N(c4ccc(C#N)c(C(F)(F)F)c4)C(=O)C3(C)C)cc2)C(C)C)C(C)C)C(C)(C)C)cc1 [Example 714, (2S,4R)-1-((5S,8S,15S)-15-(tert-butyl)-1-(4-(3-(4-cyano-3-(trifluoromethyl)phenyl)-5,5-dimethyl-4-oxo-2-thioxoimidazolidin-1-yl)phenoxy)-5,8-diisopropyl-3,9-dimethyl-4,7,13-trioxo-3,6,9,14-tetraazahexadecan-16-oyl)-4-hydroxy-N-((S)-1-(4-(4-methylthiazol-5-yl)phenyl)ethyl)pyrrolidine-2-carboxamide], which Dmax (VCaP, read-out: VCaP Dmax (%)) is on record?
A: < 25%

Q: What about the DC50 [3] of the same molecule?
A: > 0.501 µM

Q: How did the Dmax (VCaP, read-out: VCaP Dmax (%)) turn out when Cc1ncsc1-c1ccc(CNC(=O)[C@@H]2C[C@@H](O)CN2C(=O)[C@@H](NC(=O)COCCC[C@H](C)Oc2ccc(-c3ccc(N4C(=S)N(c5ccc(C#N)c(C(F)(F)F)c5)C(=O)C4(C)C)cc3)cc2)C(C)(C)C)cc1 [Example 142, (2S,4R)-1-[(2S)-2-(2-{[(4R)-4-[4-(4-{3-[4-cyano-3-(trifluoromethyl)phenyl]-5,5-dimethyl-4-oxo-2-sulfanylideneimidazolidin-1-yl}phenyl)phen-oxy]pentyl]oxy}acetamido)-3,3-dimethylbutanoyl]-4-hydroxy-N-{[4-(4-methyl-1,3-thiazol-5-yl)phenyl]methyl}pyrrolidine-2-carboxamide] was run?
A: > 71%

Q: And the DC50 (read-out: VCaP DC50; concentration that caused 50% Androgen Receptor degradation, VCaP cells (Table 32))?
A: < 0.05 µM

Q: With Cc1ncsc1-c1ccc([C@H](C)NC(=O)[C@@H]2C[C@@H](O)CN2C(=O)[C@@H](NC(=O)COCCCCOc2ccc(-c3ccc(N4C(=S)N(c5ccc(C#N)c(C(F)(F)F)c5)C(=O)C4(C)C)cn3)cn2)C(C)(C)C)cc1 [Example 401] as the molecule, how does the Dmax (VCaP, read-out: VCaP Dmax (%)) read?
A: > 71%

Q: And the DC50 (read-out: VCaP DC50; VCaP cells; Table 34)?
A: < 0.05 µM

Q: What does the source list for Cc1ncoc1-c1ccc(CNC(=O)[C@@H]2C[C@@H](O)CN2C(=O)[C@@H](NC(=O)COCCCCOc2ccc(C(=O)N[C@H]3C(C)(C)[C@H](Oc4ccc(C#N)c(C(F)(F)F)c4)C3(C)C)cc2)C(C)(C)C)cc1 [Example 166, (2S,4R)-1-[(2S)-3,3-dimethyl-2-{2-[4-(4-{[trans-3-[4-cyano-3-(trifluoromethyl)phenoxy]-2,2,4,4-tetramethylcyclobutyl]carbamoyl}phenoxy)butoxy]acetamido}butanoyl]-4-hydroxy-N-{[4-(4-methyl-1,3-oxazol-5-yl)phenyl]methyl}pyrrolidine-2-carboxamide]?
A: Dmax (VCaP, highest percentage of Androgen Receptor degradation observed, VCaP cells (Table 32); read-out: VCaP Dmax (%)): 51 to 70%; DC50 (concentration that caused 50% Androgen Receptor degradation, VCaP cells (Table 32); read-out: VCaP DC50): < 0.05 µM

Q: What does the source list for CC(C)(C)[C@H](NC(=O)COCCCCCNc1ccc(C(=O)N[C@H]2C(C)(C)[C@H](Oc3ccc(C#N)c(Cl)c3)C2(C)C)cc1)C(=O)N1C[C@H](O)C[C@H]1C(=O)NCc1ccc(-c2ncns2)cc1 [Example 504]?
A: DC50 (VCaP cells; Table 35; read-out: VCaP DC50): < 0.05 µM; Dmax (VCaP, VCaP cells; Table 35; read-out: VCaP Dmax (%)): 51 to 70%

Q: What does the source list for Cc1ncsc1-c1ccc([C@H](CO)NC(=O)[C@@H]2C[C@@H](O)CN2C(=O)[C@@H](NC(=O)CN2CCN(CCC3CCN(c4ccc(C(=O)N[C@H]5C(C)(C)[C@H](Oc6ccc(C#N)c(Cl)c6)C5(C)C)cn4)C3)CC2)C(C)(C)C)cc1 (stereo partly drawn) [Example 841, N-((1r,3r)-3-(3-chloro-4-cyanophenoxy)-2,2,4,4-tetramethylcyclobutyl)-6-(3-(2-(4-(2-(((S)-1-((2S,4R)-4-hydroxy-2-(((R)-2-hydroxy-1-(4-(4-methylthiazol-5-yl)phenyl)ethyl)carbamoyl)pyrrolidin-1-yl)-3,3-dimethyl-1-oxobutan-2-yl)amino)-2-oxoethyl)piperazin-1-yl)ethyl)pyrrolidin-1-yl)nicotinamide]?
A: DC50 [1]: < 0.05 µM; Dmax (VCaP, read-out: VCaP Dmax (%)): > 71%

Q: With Cc1ncsc1-c1ccc([C@H](C)NC(=O)[C@@H]2C[C@@H](O)CN2C(=O)[C@@H](NC(=O)CN2CCO[C@H](CN3CCO[C@H](COc4ccc(N5C(=S)N(c6ccc(C#N)c(C(F)(F)F)c6)C(=O)C5(C)C)cc4)C3)C2)C(C)(C)C)cc1 [Example 675, (2S,4R)-1-((S)-2-(2-((R)-2-(((S)-2-((4-(3-(4-cyano-3-(trifluoromethyl)phenyl)-5,5-dimethyl-4-oxo-2-thioxoimidazolidin-1-yl)phenoxy)methyl)mor-pholino)methyl)mor-pholino)acetamido)-3,3-dimethylbutanoyl)-4-hydroxy-N-((S)-1-(4-(4-methylthiazol-5-yl)phenyl)ethyl)pyrrolidine-2-carboxamide] as the molecule, how does the DC50 [3] read?
A: > 0.501 µM

From patent publication US11427548B2 (Arvinas Operations, Inc., priority 2015, dated 2022)
